The assay is described as follows: Concentration dependent inactivation of gGamma-amino-N-butyrate transaminase.

Results on one compound are retold here after BindingDB's records for doi:10.1021/jm020134i (Northwestern University, 2002).

Take `N[C@@H]1C=CC[C@H](C(=O)O)C1` [5-Amino-cyclohex-3-enecarboxylic acid]: the Ki worked out at 2300 µM.
